{
  "source": "patent US7144880B2",
  "about": "“Compositions relating to novel compounds and targets thereof” (Regents of the University of Michigan, priority 2003, dated 2006)",
  "system": "B cells",
  "assay": "Collapse of mitochondrial ΔΨm detected with DiOC6(3)",
  "type": "cell-based",
  "conditions": "by 5 hours",
  "method": "To detect O2^−, cells are incubated with DHE (10 μM) for 30 min at 37° C. and are analyzed by flow cytometry to measure ethidium fluorescence. Flow analysis of mitochondrial transmembrane potential (ψm) is conducted by labeling cells with DiOC6(3) (20 nM) for 15 min at 37 degrees C. A positive control for disruption of ψm is established using carbonyl cyanide m-chlorophenylhydrazone (CCCP, 50 μM). Caspase activation assays are performed with FAM-VAD-fluoromethylketone. Processing of the substrate is evaluated by flow cytometry.\nTo characterize the death mechanism engaged by Bz-423, intracellular ROS, ΔΨm, cytochrome c release, caspase activation, and DNA fragmentation were measured over time (the results presented are for B cells but do characterize the response in many different cell types). The first event detected after exposure to Bz-423 is an increase in the fraction of cells that stain with dihyroethedium (DHE), a redox-sensitive agent that reacts specifically with O2^−.\nCollapse of ΔΨm was detected using DiOC6(3), a mitochondria-selective potentiometric probe.",
  "data": [
    {"smiles": "CN1C(=O)C(Cc2ccc3ccccc3c2)N=C(c2ccc(O)cc2)c2cc(Cl)ccc21", "note": "(stereo not shown) [Bz-423]", "values": [
      {"measurement": "Cells with collapse of ΔΨm", "result": "> 90", "unit": "%"}
    ]}
  ]
}
